Counter-ions that a name gives are not always drawn. Square brackets hold non-standard residues; d marks the D form. Peptide text beside a SMILES is read from it. * marks the point of attachment. pNA = O=[N+]([O-])c1ccc(N*)cc1; Bz = O=C(c1ccccc1)*
Experiments:
Plasmin = conditions: values quoted in literature; cited from earlier work
Thrombin = conditions: values quoted in literature; cited from earlier work
Urokinase = Urokinase (Homo sapiens, UniProt P00749); conditions: values quoted in literature; cited from earlier work
[1] = target: T1, GPK derived enzyme (from cell line GPK, CNCMI-222) (Cavia porcellus, UniProt H0W0Z7); assay: Inhibition of GPK-derived enzyme activity by 2-mercaptoethanol (fibrin plate, fibrin clot lysis time); format: biochemical; conditions: 2-mercaptoethanol at 10 mM or above, incubated 15 min at 37° C., pH 7.8; residual activity on plasminogen containing fibrin plate and by clot lysis time
T1 construct: residual activity on plasminogen-containing fibrin plate
Method: Various dilutions of the stock solution of 2-mercaptoethanol were prepared in 0.05M sodium diethylbarbiturate buffer, pH 7.8 containing 0.01% Tween 80. GPK derived enzyme (25 μg/ml) was mixed with an equal volume of diluted 2-mercaptoethanol solution and the mixture incubated at 37° C. Control sample contained enzyme with an equal volume of buffer. After 15 min, 50 μl aliquot of the mixture was applied to plasminogen containing fibrin plate to assess the residual enzyme activity. The enzyme activity was also quantitated by fibrin clot lysis time method.

[2] = target: Melanoma (malignant melanoma plasminogen activator, HEPA) (Homo sapiens, UniProt P00750); conditions: values quoted in literature; cited from earlier work
[3] = target: T2, GPK derived enzyme, partially purified (fibrinolytic enzyme / plasminogen activator from cell line GPK, CNCMI-222) (Cavia porcellus, UniProt H0W0Z7); assay: Amidolytic activity on chromogenic substrates (release of p-nitroaniline at 405 nm); format: biochemical
T2 construct: zinc chelate agarose, partially purified from culture supernatant
Method: The amidolytic activity of the GPK derived enzyme was determined using various chromogenic substrates. […] Z

T2 sequence (H0W0Z7 33-559): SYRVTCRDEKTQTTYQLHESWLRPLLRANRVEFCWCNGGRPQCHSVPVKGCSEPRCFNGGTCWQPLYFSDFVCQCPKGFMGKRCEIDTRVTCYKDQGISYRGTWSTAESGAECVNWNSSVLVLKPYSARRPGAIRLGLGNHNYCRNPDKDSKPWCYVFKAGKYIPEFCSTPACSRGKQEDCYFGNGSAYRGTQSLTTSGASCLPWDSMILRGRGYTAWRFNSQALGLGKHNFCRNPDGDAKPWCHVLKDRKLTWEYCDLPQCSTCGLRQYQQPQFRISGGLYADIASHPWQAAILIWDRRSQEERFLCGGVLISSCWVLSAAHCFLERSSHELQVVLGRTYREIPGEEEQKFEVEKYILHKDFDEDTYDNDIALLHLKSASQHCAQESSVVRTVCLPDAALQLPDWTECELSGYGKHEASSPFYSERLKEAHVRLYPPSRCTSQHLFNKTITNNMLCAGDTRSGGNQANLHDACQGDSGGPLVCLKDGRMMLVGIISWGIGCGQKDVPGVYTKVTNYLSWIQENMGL
Chain of Melanoma (malignant melanoma plasminogen activator, HEPA) (P00750 36-562): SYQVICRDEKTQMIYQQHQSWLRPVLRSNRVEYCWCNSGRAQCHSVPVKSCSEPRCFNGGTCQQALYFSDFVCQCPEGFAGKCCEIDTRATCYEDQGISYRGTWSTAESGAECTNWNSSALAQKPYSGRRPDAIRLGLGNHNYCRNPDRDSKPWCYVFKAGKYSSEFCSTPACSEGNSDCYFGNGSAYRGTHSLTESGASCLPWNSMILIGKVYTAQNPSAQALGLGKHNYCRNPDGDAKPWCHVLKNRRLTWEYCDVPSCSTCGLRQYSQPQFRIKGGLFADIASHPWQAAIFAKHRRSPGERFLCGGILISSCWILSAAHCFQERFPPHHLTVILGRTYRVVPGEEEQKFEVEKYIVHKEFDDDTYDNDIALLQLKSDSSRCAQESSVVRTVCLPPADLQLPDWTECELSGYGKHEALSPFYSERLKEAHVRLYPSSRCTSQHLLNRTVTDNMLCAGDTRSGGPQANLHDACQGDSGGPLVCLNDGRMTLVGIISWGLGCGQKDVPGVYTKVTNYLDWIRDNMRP
T1 sequence (H0W0Z7 33-559): as the sequence (H0W0Z7 33-559) above

## CC[C@@H](C)[C@@H](N)C(=O)N1CCC[C@H]1C(=O)N[C@@H](CCCNC(=N)N)C(=O)Nc1ccc([N+](=O)[O-])cc1 [H--D--Ile--Pro--Arg--pNA.2HCl] (H-[dI]-Pro-Arg-pNA)
Plasmin
  Km: 9000 µM
  Vmax: 5 m/min/U
Thrombin
  Km: 3 µM
  Vmax: 0.1 M/min/U
Urokinase
  Km: 200 µM
  Vmax: 2 × 10^-4 M/min/U

## N=C(N)NCCC[C@H](NC(=O)[C@H](CCC(=O)O)NC(=O)[C@@H](N)CCC(=O)O)C(=O)Nc1ccc([N+](=O)[O-])cc1 [Glu--Glu--Arg--pNA.HCl] (H-Glu-Glu-Arg-pNA)
Urokinase
  Km: 90 µM
  Vmax: 3.1 × 10^-4 M/min/PLOUG.U

## OCCS [2-mercaptoethanol]
[1]
  proportion of the enzyme activity inhibited: > 80%

## CC(C)[C@H](NC(=O)[C@H](Cc1ccccc1)NC(=O)c1ccccc1)C(=O)N[C@@H](CCCNC(=N)N)C(=O)Nc1ccc([N+](=O)[O-])cc1 [Benzoyl-Phe--Val--Arg--pNa.HCl] (Bz-Phe-Val-Arg-pNA)
Thrombin
  Km: 110 µM
  Vmax: 0.036 M/min/NIH.U

## CC(C)[C@H](NC(=O)c1ccccc1)C(=O)NCC(=O)N[C@@H](CCCNC(=N)N)C(=O)Nc1ccc([N+](=O)[O-])cc1 [Benzoyl-Val--Gly--Arg--pNA.HCl] (Bz-Val-Gly-Arg-pNA)
[2]
  Km: 1000 µM
  Vmax: 0.53 M/min/IU
[3]; pH 9.0 (line above), ionic strength I 0.0035, substrate concentration by extinction
  Vmax: 1.4 M/min/M enzyme
[3]; pH 9.0, ionic strength I 0.05, 0.05M Tris-HCl, 37° C.
  Vmax: 1.1 M/min/M enzyme

## CC(C)C[C@H](NC(=O)[C@H](N)C(C)C)C(=O)N[C@@H](CCCCN)C(=O)Nc1ccc([N+](=O)[O-])cc1 [H--D--Val--Leu--Lys--pNA.2HCl] (H-[dV]-Leu-Lys-pNA)
Plasmin
  Km: 300 µM
  Vmax: 0.5 M/min/CU
[3]; pH 7.4, ionic strength I 0.006, 0.05M Tris-HCl, 37° C.
  Vmax: 27 M/min/M enzyme
[3]; pH 7.4, ionic strength I 0.15, 0.05M Tris-HCl, 37° C.
  Vmax: 14.7 M/min/M enzyme
[3]; pH 9.0, ionic strength I 0.15, 0.05M Tris-HCl, 37° C.
  Vmax: 4.08 M/min/M enzyme

Source: US4780412A, “Fibrinolytic enzymes produced from established non-cancerous cell lines” (priority 1982, dated 1988)
